Assay [1] has as its system Human vascular smooth muscle cells. In words: phosphorus-induced calcification of vascular smooth muscle cells (alizarin red staining, calcium content). It is filed as cell-based. The conditions noted are these: 100 µM 1-methylnicotinamide, 2.6 mM phosphorus, 7 days. The method, then: • 1. In this example, phosphorus was added to induce vascular calcification in vascular smooth muscle cells, and 1-methylnicotinamide or nicotinamide N-methyltransferase inhibitor (NNMTi) was added for intervention for 7 days, and then alizarin red staining was performed to evaluate the inhibitory effect of 1-methylnicotinamide on vascular calcification. The specific procedure was as follows. Human vascular smooth muscle cells of passages 8-12 were plated in a 12-well plate at 1×10^5/well, and 1 mL of DMEM complete medium was added to each well. On the first day after plating, 2.6 mM phosphorus was added to induce calcification, and 100 µM 1-methylnicotinamide or 25 µM nicotinamide N-methyltransferase inhibitor (NNMTi) was added for intervention. On the fourth day, the DMEM complete medium was replaced and 2.6 mM phosphorus was added to induce calcification again, and 100 µM 1-methylnicotinamide or 25 µM nicotinamide N-methyltransferase inhibitor (NNMTi) was added for intervention. […] After 7 days of intervention with 1-methylnicotinamide or nicotinamide N-methyltransferase inhibitor (NNMTi), a calcium content was determined. […]
(§1) Human vascular smooth muscle cells of passages 8-12 were plated in a 6-well plate at 2×10^5/well, and 2 mL of DMEM complete medium was added to each well. […] On the seventh day, the calcium content was determined.

Assay [2] has the same test system. Kind of assay: bleomycin (BLM) and phosphorus-induced calcification of vascular smooth muscle cells under aging conditions (alizarin red staining, calcium content). It counts as cell-based. The conditions noted are these: 100 µM 1-methylnicotinamide, 2.6 mM phosphorus, 1 µg/mL bleomycin, 7 days. How it is done: • 1. In this example, bleomycin (BLM) and phosphorus were added to induce vascular calcification in vascular smooth muscle cells, and 1-methylnicotinamide or nicotinamide N-methyltransferase inhibitor (NNMTi) was added for intervention for 7 days, and then alizarin red staining was performed to evaluate the inhibitory effect of 1-methylnicotinamide on vascular calcification. The specific procedure was as follows. Human vascular smooth muscle cells of passages 8-12 were plated in a 12-well plate at 1×10^5/well, and 1 mL of DMEM complete medium was added to each well. On the first day after plating, 2.6 mM phosphorus was added to induce calcification, and 100 µM 1-methylnicotinamide or 25 µM nicotinamide N-methyltransferase inhibitor (NNMTi) was added for intervention. […] After 7 days of intervention with 1-methylnicotinamide or nicotinamide N-methyltransferase inhibitor (NNMTi), a calcium content was determined. […]
as §1

The test system is the same in assay [3]. In words: cisplatin (DDP) and phosphorus-induced calcification of vascular smooth muscle cells under aging conditions (alizarin red staining, calcium content). As to conditions: 100 µM 1-methylnicotinamide, 2.6 mM phosphorus, 7 days. It counts as cell-based. The method, then: 3. To further verify the effect of 1-methylnicotinamide in inhibiting vascular calcification under aging conditions, cisplatin (DDP) and phosphorus were added to induce calcification in vascular smooth muscle cells. After 7 days of intervention with 1-methylnicotinamide or nicotinamide N-methyltransferase inhibitor (NNMTi), alizarin red staining was performed to further evaluate the inhibitory effect of 1-methylnicotinamide on vascular calcification under aging conditions. The specific procedure was as follows.
Human vascular smooth muscle cells of passages 8-12 were plated in a 12-well plate at 1×10^5/well, and 1 mL of DMEM complete medium was added to each well. On the first day after plating, 2.6 mM phosphorus was added to induce calcification, and 100 µM 1-methylnicotinamide or 25 µM nicotinamide N-methyltransferase inhibitor (NNMTi) was added for intervention. […]
4. Cisplatin and phosphorus were added to induce calcification in vascular smooth muscle cells, and 1-methylnicotinamide or nicotinamide N-methyltransferase inhibitor (NNMTi) was added for intervention for 7 days, and then the calcium content was determined. […]
as §1

For assay [4], the system named is Naturally aged C57BL/6 mice. In words: high-calcium and high-adenine diet-induced vascular calcification in aged mice (aorta alizarin red staining, IHC of aortic rings). As to conditions: 2.5 months, 25 months old mice. It is filed as in vivo. The method, then: • 1. In this example, a high-calcium and high-adenine diet was used to induce vascular calcification in aged mice. After intervention by using 1-methylnicotinamide for 2.5 months, alizarin red staining was performed on the aorta of the mice to evaluate the inhibitory effect of 1-methylnicotinamide on vascular calcification in aged mice. The specific procedure was as follows.
Naturally aged C57BL/6 mice (25 months old) were randomly divided into a control group (n=10), a high-calcium and high-adenine group (n=10), and a high-calcium and high-adenine + 1-methylnicotinamide group (100 mg/kg/day) (n=10), and were fed with normal feed, high-calcium and high-adenine feed, and high-calcium and high-adenine feed and 1-methylnicotinamide respectively, and water is normally provided for each group. The mice were killed after 2.5 months, and the aortas of the mice were obtained for alizarin red staining.
2. To further verify the effect of 1-methylnicotinamide in inhibiting vascular calcification in aged mice, a high-calcium and high-adenine diet was used to induce vascular calcification in aged mice. After 2.5 months of intervention with 1-methylnicotinamide, the IHC staining was performed on α-smooth muscle actin (α-SMA) and bone morphogenetic protein 2 (BMP2) in mouse aortic rings to further evalaute the inhibitory effect of 1-methylnicotinamide on vascular calcification in aged mice. […]

This note sets out measurements from patent EP4613271A1, “USE OF 1-METHYLNICOTINAMIDE IN PREPARATION OF ANTI-VASCULAR CALCIFICATION DRUG” (The Eight Affiliated Hospital, Sun Yat-Sen University, priority 2023, dated 2024).

In the case of `C[n+]1cccc(C(N)=O)c1` [1-methylnicotinamide], the alizarin red staining entry in assay [1] (Fig. 1) is on record as “could significantly inhibit the occurrence of vascular calcification”; in assay [2] (Panel A of Fig. 3) it was “could significantly inhibit the calcification of bleomycin-induced aged vascular smooth muscle cells”; in assay [3] (1 µg/mL cisplatin, Panel C of Fig. 3), “could significantly inhibit the calcification of cisplatin-induced aged vascular smooth muscle cells”. Moreover, the calcium content result in assay [1] (Fig. 2) is “had the effect of inhibiting vascular calcification”; in assay [2] (Panel B of Fig. 3), “had the effect of inhibiting vascular calcification under aging conditions”; in assay [3] (1 µM cisplatin, Panel D of Fig. 3), “had the effect of inhibiting vascular calcification under aging conditions”. Moreover, in assay [4] (100 mg/kg/day 1-methylnicotinamide with high-calcium and high-adenine feed, Panel A of Fig. 4), the “alizarin red staining of the aorta” value is listed as “could significantly inhibit vascular calcification in aged mice”. Further, the “IHC staining of α-SMA and BMP2 in aortic rings” value in assay [4] (1-methylnicotinamide with high-calcium and high-adenine feed, Panel B of Fig. 4) is given as “could significantly inhibit vascular calcification in aged mice”.
